# US6441195B1, “Substituted sulphonylamino(thio) carbonyl compounds” (Bayer Aktiengesellschaft, priority 1995, dated 2002)
# What was measured:
# Format in all cases: in vivo
# Soya beans = test: Pre-emergence test/Greenhouse, Soya beans; settings: in vivo
# How it was run: (§1)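 In this greenhouse test the application rate per unit area, not the concentration of the preparation, defines the dose; the emulsified preparation is applied to soil about 24 h post-sowing. Plants are scored for % damage versus untreated control after three weeks.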
# Stellaria = test: Post-emergence test/greenhouse, Stellaria; settings: greenhouse, 30 g of ai./ha, after three weeks
# How it was run: (§2)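 Greenhouse, post-emergence; formulation acetone + alkylaryl polyglycol ether, water-diluted; spray 2000 l/ha on 5–15 cm plants; visual % damage at 3 wk vs untreated (0% = like control).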
# Maize [1] = test: Pre-emergence test/Greenhouse, Maize; settings: in vivo
# How it was run: as §1
# Solanum = test: Pre-emergence test/Greenhouse, Solanum; settings: 15 g of ai./ha, after three weeks
# How it was run: as §1
# Matricaria [2] = test: Post-emergence test/greenhouse, Matricaria; settings: greenhouse, 30 g of ai./ha, after three weeks
# How it was run: as §2
# Ambrosia = test: Pre-emergence test/Greenhouse, Ambrosia; settings: 15 g of ai./ha, after three weeks
# How it was run: as §1
# weeds [3] = test: Pre-emergence test (greenhouse), activity against weeds; settings: in words
# How it was run: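 Compound formulated in acetone with alkylaryl polyglycol ether emulsifier, diluted in water, and watered onto soil about 24 h after sowing, dosed by application rate per unit area. Damage rated after three weeks as % versus untreated control (0% = no action).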
# Gallium = test: Post-emergence test/greenhouse, Gallium; settings: greenhouse, 30 g of ai./ha, after three weeks
# How it was run: as §2
# weeds [4] = test: Post-emergence test (greenhouse), activity against weeds; settings: in words
# How it was run: as §2
# Maize [5] = test: Post-emergence test/greenhouse, Maize; settings: greenhouse, 30 g of ai./ha, after three weeks
# Protocol: Solvent: 5 parts by weight of acetone
# Emulsifier: 1 part by weight of alkylaryl polyglycol ether
# To produce a suitable preparation of active compound, 1 part by weight of active compound is mixed with the stated amount of solvent, the stated amount of emulsifier is added and the concentrate is diluted with water to the desired concentration.
# Test plants which have a height of 5-15 cm are sprayed with the preparation of the active compound in such a way as to apply the particular amounts of active compound desired per unit area. The concentration of the spray liquor is chosen so that the particular amounts of active compound desired are applied in 2000 l of water/ha.
# After three weeks, the degree of damage to the plants is rated in % damage in comparison to the development of the untreated control.
# 0%=no action (like untreated control)
# Lolium [6] = test: Post-emergence test/greenhouse, Lolium; settings: greenhouse, 30 g of ai./ha, after three weeks
# How it was run: as §2
# Amaranthus = test: Post-emergence test/greenhouse, Amaranthus; settings: greenhouse, 30 g of ai./ha, after three weeks
# How it was run: as §2
# Sorghum [7] = test: Pre-emergence test/Greenhouse, Sorghum; settings: 15 g of ai./ha, after three weeks
# How it was run: as §1
# Sorghum [8] = test: Post-emergence test/greenhouse, Sorghum; settings: greenhouse, 30 g of ai./ha, after three weeks
# How it was run: as §2
# Poa = test: Pre-emergence test/Greenhouse, Poa; settings: 15 g of ai./ha, after three weeks
# How it was run: as §1
# Matricaria [9] = test: Pre-emergence test/Greenhouse, Matricaria; settings: 15 g of ai./ha, after three weeks
# How it was run: as §1
# Lolium [10] = test: Pre-emergence test/Greenhouse, Lolium; settings: 15 g of ai./ha, after three weeks
# How it was run: as §1
# Digitaria = test: Post-emergence test/greenhouse, Digitaria; settings: greenhouse, 30 g of ai./ha, after three weeks
# How it was run: as §2
# Echinochloa = test: Post-emergence test/greenhouse, Echinochloa; settings: greenhouse, 30 g of ai./ha, after three weeks
# How it was run: as §2
smiles,measurement,setting,value
COC(=O)c1cccc(C)c1S(=O)(=O)NC(=O)n1nc(SCCF)n(C2CC2)c1=O [Example 151],"degree of damage to the plants (% damage vs untreated control), Soya beans",Soya beans,10%
same,"degree of damage, Stellaria",Stellaria,90%
same,"degree of damage to the plants (% damage vs untreated control), Maize",Maize [1],20%
same,"degree of damage to the plants (% damage vs untreated control), Solanum",Solanum,90%
same,"degree of damage, Matricaria",Matricaria [2],90%
same,"degree of damage to the plants (% damage vs untreated control), Ambrosia",Ambrosia,80%
same,activity against weeds,weeds [3],very strong activity against weeds
same,"degree of damage, Gallium",Gallium,90%
same,activity against weeds,weeds [4],very strong activity against weeds
same,"degree of damage, Maize",Maize [5],60%
same,"degree of damage, Lolium",Lolium [6],60%
same,"degree of damage, Amaranthus",Amaranthus,95%
same,"degree of damage to the plants (% damage vs untreated control), Sorghum",Sorghum [7],50%
same,"degree of damage, Sorghum",Sorghum [8],90%
same,"degree of damage to the plants (% damage vs untreated control), Poa",Poa,90%
same,"degree of damage to the plants (% damage vs untreated control), Matricaria",Matricaria [9],90%
same,"degree of damage to the plants (% damage vs untreated control), Lolium",Lolium [10],90%
same,"degree of damage, Digitaria",Digitaria,90%
same,"degree of damage, Echinochloa",Echinochloa,70%
